# Measurements published in ChEMBL document CHEMBL1201862, “PubChem BioAssay data set” (2004).
# Calls of active or inactive are those of the source.
# Assays:
# [1] = Luminescent dose response cell-based high throughput screening assay for inhibitors of the Janus kinase 2 mutant JAK2V617F. [Related pubchem assays: 1446 (Primary screen.), 1521 (Confirmation assay.), 1486 (Counter screen.)]; type: functional
# [2] = HEK293T cell cytotoxicity, dose response, cytotoxicity control for HIV Vif inhibitor project, cherry-picks (AID 652208); type: functional, cell-based
# [3] = target: T1, Replicative DNA helicase DnaB (Mycobacterium tuberculosis, UniProt P9WMR3); test: DnaB intein splicing inhibitors, dose response, biochemical, cell-free fluorescence (AID 449749); type: functional
# T1 sequence (P9WMR3 whole entry): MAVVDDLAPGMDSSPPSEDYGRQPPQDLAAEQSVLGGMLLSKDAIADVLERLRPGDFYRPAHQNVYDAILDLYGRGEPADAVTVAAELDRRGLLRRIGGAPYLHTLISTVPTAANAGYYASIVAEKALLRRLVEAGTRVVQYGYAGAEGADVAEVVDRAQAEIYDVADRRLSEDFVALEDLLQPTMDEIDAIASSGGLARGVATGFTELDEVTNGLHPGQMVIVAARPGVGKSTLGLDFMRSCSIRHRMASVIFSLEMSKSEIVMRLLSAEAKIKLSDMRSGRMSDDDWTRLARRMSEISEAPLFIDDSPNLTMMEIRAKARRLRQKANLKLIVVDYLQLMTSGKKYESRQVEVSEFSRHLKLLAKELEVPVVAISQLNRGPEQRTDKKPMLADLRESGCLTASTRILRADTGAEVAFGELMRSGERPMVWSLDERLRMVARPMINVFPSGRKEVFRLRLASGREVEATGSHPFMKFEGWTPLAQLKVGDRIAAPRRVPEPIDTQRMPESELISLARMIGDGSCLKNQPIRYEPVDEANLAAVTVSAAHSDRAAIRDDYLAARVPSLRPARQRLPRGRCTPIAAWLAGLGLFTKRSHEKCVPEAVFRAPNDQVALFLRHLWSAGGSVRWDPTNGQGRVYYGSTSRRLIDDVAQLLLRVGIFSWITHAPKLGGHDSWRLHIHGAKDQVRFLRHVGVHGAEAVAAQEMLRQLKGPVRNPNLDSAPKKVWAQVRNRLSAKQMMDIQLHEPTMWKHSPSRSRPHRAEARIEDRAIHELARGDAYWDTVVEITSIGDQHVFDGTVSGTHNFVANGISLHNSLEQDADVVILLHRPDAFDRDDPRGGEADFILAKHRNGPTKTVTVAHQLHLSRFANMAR
# Protein RecA = target: T2, Protein RecA (Mycobacterium tuberculosis, UniProt P9WHJ3); test: Fluorescence Cell-Free Homogeneous Dose Retest to Identify Inhibitors of RecA-Intein Splicing Activity. [Related pubchem assays (depositor defined):AID2097, AID2223, AID489010, AID492950]; type: functional
# T2 sequence (P9WHJ3 whole entry): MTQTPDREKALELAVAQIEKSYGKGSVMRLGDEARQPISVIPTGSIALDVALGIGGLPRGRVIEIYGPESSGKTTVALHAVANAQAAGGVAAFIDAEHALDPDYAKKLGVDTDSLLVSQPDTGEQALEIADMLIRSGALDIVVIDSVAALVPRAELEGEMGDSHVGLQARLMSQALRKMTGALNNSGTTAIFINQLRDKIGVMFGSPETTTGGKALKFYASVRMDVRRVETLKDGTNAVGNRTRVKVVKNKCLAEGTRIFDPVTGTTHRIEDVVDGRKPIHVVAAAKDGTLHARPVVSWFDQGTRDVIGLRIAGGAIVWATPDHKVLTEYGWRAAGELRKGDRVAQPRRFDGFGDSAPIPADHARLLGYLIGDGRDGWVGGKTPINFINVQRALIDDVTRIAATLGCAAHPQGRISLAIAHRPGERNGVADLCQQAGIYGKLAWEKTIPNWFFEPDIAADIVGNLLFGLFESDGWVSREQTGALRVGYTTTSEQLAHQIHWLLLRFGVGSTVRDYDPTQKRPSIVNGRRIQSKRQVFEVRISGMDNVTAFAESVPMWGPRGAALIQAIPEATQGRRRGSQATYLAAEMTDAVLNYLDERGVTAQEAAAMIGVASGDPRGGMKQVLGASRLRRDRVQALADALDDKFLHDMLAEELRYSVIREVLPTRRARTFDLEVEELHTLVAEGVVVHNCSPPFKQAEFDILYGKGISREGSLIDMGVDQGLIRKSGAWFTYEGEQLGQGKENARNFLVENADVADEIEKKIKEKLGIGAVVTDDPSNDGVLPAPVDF
# [4] = Intein inhibitors as potential Tuberculosis drugs, a cytotoxicity screen. [Related pubchem assays (depositor defined):AID2221, AID2223, AID434968, AID435010, AID449749, AID449750, AID489010]; type: functional
# HEK293 = test: inhibitors of LMP1-driven NF-kB reporter, dose response, cell-based, HEK293, luciferase, cherry-pick (AID 588343); type: functional; conditions: Homo sapiens
# [5] = target: Beta-2 adrenergic receptor (Homo sapiens, UniProt P07550); test: beta2AR agonists driving receptor internalization, dose response, cell-based, FAP fluorogen, flow cytometry, cherry pick 1 (AID 588763); type: functional
# [6] = target: T3, Ubiquitin-conjugating enzyme E2 N (Homo sapiens, UniProt P61088); type: functional
# T3 sequence (P61088 whole entry): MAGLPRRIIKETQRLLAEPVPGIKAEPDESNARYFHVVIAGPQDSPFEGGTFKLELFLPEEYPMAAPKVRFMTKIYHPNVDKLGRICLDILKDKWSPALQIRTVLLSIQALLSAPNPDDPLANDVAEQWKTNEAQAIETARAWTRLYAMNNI
# Bcl-2-related protein A1 = target: T4, Bcl-2-related protein A1 (Mus musculus, UniProt Q07440); type: functional;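 further: confirmatory dose–response counterscreen on Bfl-1, used to check hits from a UBC13 polyubiquitin inhibitor campaign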
# T4 sequence (Q07440 whole entry): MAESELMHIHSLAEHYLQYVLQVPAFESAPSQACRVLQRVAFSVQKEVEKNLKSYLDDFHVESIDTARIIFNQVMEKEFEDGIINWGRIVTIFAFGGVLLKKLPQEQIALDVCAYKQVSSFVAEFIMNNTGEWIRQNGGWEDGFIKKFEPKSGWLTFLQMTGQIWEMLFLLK
# [7] = target: T3, Ubiquitin-conjugating enzyme E2 N; type: functional; remark: listed apart in the source
# Cannabinoid receptor 2 [8] = target: T5, Cannabinoid receptor 2 (Homo sapiens, UniProt P34972); test: SAR analysis of antagonists of the Cannabinoid Receptor 2 using an Image-Based Assay. [Related pubchem assays (depositor defined):AID2013, AID2026]; type: functional
# Cytochrome P450 2C19 = Cytochrome P450 2C19 (Homo sapiens, UniProt P33261); test: Cytochrome panel assay with activity outcomes. Panel member name: p450-cyp2c19 Compounds with AC50 equal or less than 10 uM are considered active; type: functional; conditions: read-out: AC50
# [9] = target: T6, G-protein coupled receptor 35 (Homo sapiens, UniProt Q9HC97); test: SAR analysis of Agonists of the GPR35 Receptor using an Image-Based Assay - Set 2. [Related pubchem assays (depositor defined):AID2013, AID2026]; type: functional
# Cytochrome P450 3A4 = Cytochrome P450 3A4 (Homo sapiens, UniProt P08684);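 further: CYP3A4 tested as one member of a cytochrome P450 panel screen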
# [10] = target: T7, G-protein coupled receptor 55 (Homo sapiens, UniProt Q9Y2T6); test: GPR55 antagonists blocking LPI-driven arrestin recruitment, primary screen, imaging, U2OS, beta-arrestin-GFP, LPI agonist (AID 2013); type: functional;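 further: antagonist potency measured as reduced agonist-driven arrestin aggregation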
# [11] = target: T6, G-protein coupled receptor 35; test: SAR analysis of Antagonists of the GPR35 Receptor using an Image-Based Assay - Set 3. [Related pubchem assays (depositor defined):AID2013, AID2026]; type: functional
# Cannabinoid receptor 1 [12] = target: T8, Cannabinoid receptor 1 (Homo sapiens, UniProt P21554); test: SAR analysis of antagonists of the Cannabinoid Receptor 1 using an Image-Based Assay - Set 2. [Related pubchem assays (depositor defined):AID2013, AID2026]; type: functional
# Cannabinoid receptor 1 [13] = target: T8, Cannabinoid receptor 1; test: SAR analysis of agonists of the Cannabinoid Receptor 1 using an Image-Based Assay - Set 2. [Related pubchem assays (depositor defined):AID2013, AID2026]; type: functional
# Cannabinoid receptor 2 [14] = target: T5, Cannabinoid receptor 2; test: SAR analysis of agonists of the Cannabinoid Receptor 2 using an Image-Based Assay. [Related pubchem assays (depositor defined):AID2013, AID2026]; type: functional
# [15] = target: T7, G-protein coupled receptor 55; test: GPR55 antagonist potency of analogs, SAR follow-up, imaging, U2OS, beta-arrestin-GFP, LPI agonist, set 2 (AID 2820); type: functional
# [16] = cytotoxicity toward NIH3T3 fibroblasts, dose response, counter-screen, cell-based, ATP luminescence, mouse fibroblasts (AID 2010); type: functional;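 further: cells exposed to compound for about 90 hours before reading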
# [17] = target: T9, Type-1 angiotensin II receptor (Homo sapiens, UniProt P30556); test: AT1 receptor agonists, dose response, selectivity assay for APJ receptor agonist project, cell-based, uHTS hits (AID 488865); type: functional;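 further: beta-arrestin recruitment to AT1 measured by enzyme fragment complementation luminescence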
# T9 sequence (P30556 whole entry): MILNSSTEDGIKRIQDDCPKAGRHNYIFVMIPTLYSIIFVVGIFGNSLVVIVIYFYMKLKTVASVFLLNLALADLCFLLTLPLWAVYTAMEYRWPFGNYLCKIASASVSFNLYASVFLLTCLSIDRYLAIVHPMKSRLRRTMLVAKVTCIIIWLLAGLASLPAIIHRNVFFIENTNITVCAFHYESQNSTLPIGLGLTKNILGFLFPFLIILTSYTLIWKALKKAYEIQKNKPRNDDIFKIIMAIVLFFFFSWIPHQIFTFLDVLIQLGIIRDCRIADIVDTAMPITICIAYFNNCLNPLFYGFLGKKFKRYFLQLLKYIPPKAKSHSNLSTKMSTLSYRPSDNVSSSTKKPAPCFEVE
# [18] = inhibitors of intracellular T. cruzi replication, confirmation, NIH3T3 host cells, beta-gal luminescence (AID 2044); type: functional, cell-based;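 further: intracellular parasites grown in NIH/3T3 mouse fibroblasts as host cells; luminescent beta-galactosidase reporter signal from transgenic T. cruzi replicating inside host cells; inhibitors lower the luminescence signal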
# 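Wherever CC50 is given: cells exposed to compound for 72 hours before luminescence readout.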
# T8 sequence (P21554 whole entry): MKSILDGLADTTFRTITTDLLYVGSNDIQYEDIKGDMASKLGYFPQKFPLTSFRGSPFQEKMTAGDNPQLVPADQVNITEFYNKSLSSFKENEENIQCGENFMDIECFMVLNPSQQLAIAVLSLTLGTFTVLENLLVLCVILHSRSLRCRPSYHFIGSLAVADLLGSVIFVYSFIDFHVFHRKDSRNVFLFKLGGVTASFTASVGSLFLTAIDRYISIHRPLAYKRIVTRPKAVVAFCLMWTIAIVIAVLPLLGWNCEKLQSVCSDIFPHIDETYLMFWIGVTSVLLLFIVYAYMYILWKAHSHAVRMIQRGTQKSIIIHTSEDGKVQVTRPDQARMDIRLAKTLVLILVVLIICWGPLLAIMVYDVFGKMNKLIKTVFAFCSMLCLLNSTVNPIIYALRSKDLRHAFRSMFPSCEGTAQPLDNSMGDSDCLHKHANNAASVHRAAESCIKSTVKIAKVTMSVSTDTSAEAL
# T6 sequence (Q9HC97 whole entry): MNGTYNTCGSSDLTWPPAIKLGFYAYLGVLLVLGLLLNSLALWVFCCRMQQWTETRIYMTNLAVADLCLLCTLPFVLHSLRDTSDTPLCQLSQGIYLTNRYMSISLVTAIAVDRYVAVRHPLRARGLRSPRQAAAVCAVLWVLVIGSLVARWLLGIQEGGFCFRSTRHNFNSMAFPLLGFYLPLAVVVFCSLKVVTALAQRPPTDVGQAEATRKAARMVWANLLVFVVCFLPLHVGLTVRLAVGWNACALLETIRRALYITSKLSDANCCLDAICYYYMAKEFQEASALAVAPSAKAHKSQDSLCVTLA
# T5 sequence (P34972 whole entry): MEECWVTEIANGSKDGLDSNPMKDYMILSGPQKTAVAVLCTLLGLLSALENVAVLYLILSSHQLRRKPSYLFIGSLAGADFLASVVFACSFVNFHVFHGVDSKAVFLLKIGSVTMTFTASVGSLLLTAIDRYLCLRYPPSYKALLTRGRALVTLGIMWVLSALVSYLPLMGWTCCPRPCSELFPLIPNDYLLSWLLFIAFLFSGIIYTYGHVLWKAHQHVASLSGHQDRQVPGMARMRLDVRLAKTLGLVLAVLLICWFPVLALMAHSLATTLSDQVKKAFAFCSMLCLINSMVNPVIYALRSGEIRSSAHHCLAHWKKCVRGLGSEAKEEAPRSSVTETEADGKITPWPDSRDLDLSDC
# T7 sequence (Q9Y2T6 whole entry): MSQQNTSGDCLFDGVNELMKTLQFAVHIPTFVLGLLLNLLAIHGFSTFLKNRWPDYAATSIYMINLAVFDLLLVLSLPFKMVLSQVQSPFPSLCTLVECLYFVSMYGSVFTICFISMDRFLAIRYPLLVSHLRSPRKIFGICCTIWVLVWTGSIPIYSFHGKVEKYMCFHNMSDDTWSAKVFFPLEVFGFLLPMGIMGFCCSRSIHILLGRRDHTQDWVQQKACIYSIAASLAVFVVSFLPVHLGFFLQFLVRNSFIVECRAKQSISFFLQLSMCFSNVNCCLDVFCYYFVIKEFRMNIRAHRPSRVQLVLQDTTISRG
# Cytochrome P450 3A4, sequence (P08684 whole entry): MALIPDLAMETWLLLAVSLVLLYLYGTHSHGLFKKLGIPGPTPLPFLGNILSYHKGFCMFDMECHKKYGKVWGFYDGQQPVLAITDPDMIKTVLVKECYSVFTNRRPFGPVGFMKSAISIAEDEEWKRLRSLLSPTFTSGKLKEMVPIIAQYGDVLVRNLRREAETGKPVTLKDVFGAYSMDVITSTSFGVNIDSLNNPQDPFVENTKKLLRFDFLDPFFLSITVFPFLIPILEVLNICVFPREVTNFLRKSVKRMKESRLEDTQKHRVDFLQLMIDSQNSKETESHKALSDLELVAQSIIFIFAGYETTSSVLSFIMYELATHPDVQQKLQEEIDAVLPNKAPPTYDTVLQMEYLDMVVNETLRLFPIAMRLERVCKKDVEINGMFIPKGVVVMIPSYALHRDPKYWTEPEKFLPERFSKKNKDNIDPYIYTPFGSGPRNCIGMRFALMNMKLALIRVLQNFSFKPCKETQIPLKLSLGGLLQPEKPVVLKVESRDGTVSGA
# Cytochrome P450 2C19, sequence (P33261 whole entry): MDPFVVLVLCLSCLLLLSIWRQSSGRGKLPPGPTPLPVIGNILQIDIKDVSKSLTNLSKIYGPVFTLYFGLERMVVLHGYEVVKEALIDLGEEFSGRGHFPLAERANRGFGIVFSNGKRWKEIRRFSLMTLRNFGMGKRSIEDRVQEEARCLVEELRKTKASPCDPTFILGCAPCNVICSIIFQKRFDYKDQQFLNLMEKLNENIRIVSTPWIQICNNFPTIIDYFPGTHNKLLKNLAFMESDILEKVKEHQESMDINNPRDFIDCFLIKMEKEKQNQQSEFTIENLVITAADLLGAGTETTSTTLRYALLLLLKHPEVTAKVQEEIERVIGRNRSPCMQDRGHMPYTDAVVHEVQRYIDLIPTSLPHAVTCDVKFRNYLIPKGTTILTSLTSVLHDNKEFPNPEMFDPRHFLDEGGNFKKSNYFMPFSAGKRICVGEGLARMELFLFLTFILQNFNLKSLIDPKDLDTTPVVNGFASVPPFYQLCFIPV
# Beta-2 adrenergic receptor, sequence (P07550 whole entry): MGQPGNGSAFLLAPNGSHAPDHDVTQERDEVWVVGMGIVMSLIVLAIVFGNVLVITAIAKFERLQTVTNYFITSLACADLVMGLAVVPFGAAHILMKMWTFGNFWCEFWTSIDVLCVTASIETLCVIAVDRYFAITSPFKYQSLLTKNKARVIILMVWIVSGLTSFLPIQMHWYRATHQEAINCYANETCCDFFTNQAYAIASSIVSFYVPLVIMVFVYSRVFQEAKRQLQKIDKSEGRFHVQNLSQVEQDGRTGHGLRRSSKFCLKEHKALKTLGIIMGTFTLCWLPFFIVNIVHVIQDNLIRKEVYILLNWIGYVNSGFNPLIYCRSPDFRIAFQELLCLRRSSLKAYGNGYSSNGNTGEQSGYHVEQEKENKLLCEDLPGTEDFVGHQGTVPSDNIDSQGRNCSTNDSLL
structure (smiles),measurement,setting,value
Clc1ccc(-n2nnnc2Sc2ncnc3sccc23)cc1,IC50,[1],0.787 µM (active)
same,AC50,[2],10.8 µM (active)
same,AC50,[3],3.76 µM (active)
same,EC50,Protein RecA,1.03 µM (active)
same,CC50,[4],9.7 µM (active)
same,AC50,HEK293,10.7 µM (active)
same,EC50,[5],10.5 µM (inactive)
COc1ccc(OC)c(/C=C/C(=O)OCC(=O)c2c(N)n(C)c(=O)n(C)c2=O)c1,IC50,[6],> 20 µM (inactive)
same,IC50,Bcl-2-related protein A1,> 20 µM (inactive)
same,IC50,[7],14 µM (active)
Cc1cc(C)c2nc(-c3ccccn3)cc(C(=O)Nc3ccc(S(=O)(=O)Nc4cc(C)on4)cc3)c2c1,IC50,Cannabinoid receptor 2 [8],> 32 µM (inactive)
same,AC50,Cytochrome P450 2C19,17.8 µM (inconclusive)
same,EC50,[9],> 32 µM (inactive)
same,AC50,Cytochrome P450 3A4,17.8 µM (inconclusive)
same,IC50,[10],1.82 µM (active)
same,IC50,[11],> 32 µM (inactive)
same,IC50,Cannabinoid receptor 1 [12],> 32 µM (inactive)
same,EC50,Cannabinoid receptor 1 [13],> 32 µM (inactive)
same,EC50,Cannabinoid receptor 2 [14],> 32 µM (inactive)
same,IC50,[15],0.709 µM (active)
Clc1cccc(CN2CCc3c([nH]c4ccccc34)C2)c1,EC50,[16],> 60 µM (not active)
same,EC50,[17],> 100 µM (inactive)
same,EC50,[18],3.73 µM (active)
